Test results reported in patent EP1321169A1, “Combination of a serotonin receptor antagonist with a histidine decarboxylase inhibitor as a medicament” (Biofrontera Pharmaceuticals AG, priority 2001, dated 2003).

How the values were obtained:
[1] = target: T1, human Histamine H2 receptor (Homo sapiens, UniProt P25021); assay: Cloned human H2 receptor binding assay, [3H]-thiotidine, COS-7 cells; details: n.A. = no affinity (= no inhibition of histamine activity) detected, read-out: Receptor Affinity: pK Values, measured receptor H2 (converted)
T1 construct: expressed in transfected cells; host or cells: COS-7 (transient)
T1 sequence (P25021 whole entry): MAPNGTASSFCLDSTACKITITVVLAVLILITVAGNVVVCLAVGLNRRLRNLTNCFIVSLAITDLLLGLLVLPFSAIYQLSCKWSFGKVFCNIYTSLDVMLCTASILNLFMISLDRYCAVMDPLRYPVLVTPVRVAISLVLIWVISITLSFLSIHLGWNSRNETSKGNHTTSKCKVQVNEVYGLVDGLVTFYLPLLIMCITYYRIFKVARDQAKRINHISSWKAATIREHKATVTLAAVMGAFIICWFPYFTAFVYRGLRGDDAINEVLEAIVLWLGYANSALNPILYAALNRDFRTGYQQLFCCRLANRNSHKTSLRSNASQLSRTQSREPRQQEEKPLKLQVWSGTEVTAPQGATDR
Experimental: (§1) COS-7 cells were transiently transfected with an expression plasmid pCineohH1, pCineohH2, pCineohH3 and pCineohH4 encoding the human Histamine H1, H2 H3 or H4 receptor, respectively. Transfected cells were harvested after 48 h, homogenized in ice-cold 50 mM Na2/potassium phosphate buffer (pH 7.4) and used for radioligand binding studies. Cell homogenates (40 - 50 µg of protein) were incubated for 30 min at 25°C in 50 mM Na2/potassium phosphate buffer (pH 7.4) in 400 µl with the various concentrations of either [^3H]-mepyramine, [^3H]-thiotidine, [^3H]-R-α-Methylhistamine, and [^3H]-pyramilamine for cells expressing recombinant human H1, H2, H3 and H4 receptors, respectively. The nonspecific binding was defined in the presence of 1 µM mianserin. In displacement studies, cell homogenated were incubated either with 1 nM [^3H]-mepyramine, 15 nM [^3H]-thiotidine, 0.5 nM [^3H]-R-α-Methylhistamine, or 15 nM [^3H]-pyramilamine and increasing concentrations of competing ligands. The incubations were stopped by rapid dilution with 3 ml of ice-cold 50 mM Na2/potassium phosphate buffer (pH 7.4). The bound radioactivity was separated by filtration through Whatman GF/C filters that had been treated with 0.3 % polyethyleneimine. Filters were washed twice in 3 ml of buffer and radioactivity retained on the filters was measured by liquid scintillation counting.

[2] = tested on: human histamine receptors; assay: Cloned human H1, H2, H3 and H4 receptor binding assay (summary statement); details: statement in words
Experimental: as §1

[3] = repeated administration; cited from earlier work

Ki [1] | affinity for the human histamine receptors [2] | SMILES | sedative effects [3] | tissue histamine content [3]
3240 nM |  | CCOc1ccc2c(c1)Sc1cccc(O)c1C2=C1CCN(C)CC1 [4-(6-Ethoxy-1-hydroxy-thioxanthen-9-yliden)-1-methyl-piperidine] |  | 
1050 nM |  | COc1cccc2c1C(=C1CCN(C)CC1)c1ccc(C(C)C)cc1S2 [4-(6-Isopropyl-1-methoxy-thioxanthen-9-yliden)-1-methyl-piperidine] |  | 
 | low affinity | N[C@@](CF)(Cc1cnc[nH]1)C(=O)O [FMH, (S)-α-fluoromethylhistidine] | only very mild sedative effects | strong reduction
2040 nM |  | CCOc1ccc2c(c1)Sc1cccc(OC)c1C2=C1CCN(C)CC1 [4-(6-Ethoxy-1-methoxy-thioxanthen-9-yliden)-1-methyl-piperidine] |  | 
